Results: patent US10919889B2, “Chiral heterocyclic compound with hedgehog pathway antagonist activity, method and use thereof” (SUZHOU KINTOR PHARMACEUTICALS, INC., priority 2016, dated 2021)
Where “and” joins values, the source holds several entries; their conditions need not be identical. Equal entries are not always repeated. Where two headings read alike, the source gives them in different places. One block for each molecule: values may come before it.

Columns and labels:
Hh signaling pathway [1] = assay: NIH3T3-GRE-Luc luciferase reporter assay (primary assay); assay type: cell-based
Source text: NIH3T3 cells (CRL-1658, ATCC) were maintained in DMEM (Gibico) supplemented with 10% FBS (Hyclone). GRE-Luc plasmid was generated by inserting 8×Gli-1 responsive element (GRE) into the multiple cloning site of pGL4.26 vector (Promega). NIH3T3-GRE-Luc reporter cell line was established by hygromycin (Invitrogen) selection after transfected with GRE-Luc luciferase reporter plasmid. Single clones were validated by the induction of luciferase by recombinant sonic hedgehog (sHh) protein or small molecule agonist SAG (ABIN629346). Selected clone was used to monitor the Hh signaling.
(§1) The NIH3T3-GRE-Luc cells were maintained in complete culture medium (DMEM with 4 mM L-Gln, 1.5 g/L sodium bicarbonate and 4.5 g/L glucose supplemented with 100 μg/mL hygromycin and 10% FBS). When confluent, the cells were trypsinized and re-suspended in assay medium (0.5% serum-containing DMEM). After 100 µL/well of cells suspension was added to the 96-well-plate (Final cell concentration is 15,000 cells/well), cells were cultured for additional 48 hours before adding the compounds.
Compounds were serially diluted in DMSO and further diluted with assay medium. In an embodiment, 10 nM SAG was added in assay medium as the agonist of Hh signaling. After the compounds and agonist were prepared, the medium was removed carefully. 100 μL of assay medium containing compound and agonist was added to the cell with care. Cell plates were incubated at 37° C. for additional 48 hours.
(§2) Following the 48 hours incubation, 40 μL/well of luciferase media (Brigh-Glo, Promega) was added to the cells. The plate was incubated at room temperature for 5 minutes under gentle shaking. Luminescence signal was measured with plate reader (PHERAstar FS, BMG). The potency of compounds was calculated based on the inhibition of luminescence signaling.
NIH3T3 cells (CRL-1658, ATCC) were maintained in DMEM (11965, Gibico) supplemented with 10% FBS (Hyclone). GRE-Luc plasmid was generated by cloning 8×Gli-1 responsive element (GRE) into the MCS of pGL4.26 (Promega). NIH3T3-GRE-Luc reporter cell lines were established by hygromycin (Invitrogen) selection after transfection with GRE-Luc luciferase reporter plasmid. Single clones were validated for the assay quality with N-terminal fragment of recombinant sonic hedgehog protein or small molecule agonist SAG (ABIN629346). Selected clone were used to monitor the Hh signaling.
as §1, with “ug/ml” for “μg/mL”, “resuspended” for “re-suspended”, “ul/well” for “µL/well”
Compounds were serially diluted in DMSO and further diluted with assay medium. In an embodiment, 10 nM SAG was added in assay medium as the agonist of Hh signaling. After the compounds and agonist were prepared, carefully remove medium (Aspirate the medium with pipette instead of vacuum, or else the NIH3T3 cells monolayer will be detached). 100 ul of assay medium containing compound or agonist was added to the cell with care. Cell plates were incubated at 37 degree for additional 48 hours.
as §2, with “ul/well” for “μL/well”, “min” for “minutes”, “basing” for “based”

[2] = Rat pharmacokinetics experiments; assay type: in vivo, Sprague-Dawley rats; settings: for AUC(0-t): read-out: Area under the curve AUC0-24 h; for bioavailability: po
Method: Male Spraguee-Dawley rats (body weight: 220 g˜250 g) were purchased from Slac Laboratory Animals (Shanghai). […] Blood samples were taken through the posterior orbital vein and the blood samples were placed in a tube containing EDTA (as an anticoagulant) and stored in a −80° C. environment after centrifugation with a refrigerated centrifuge. Blood sample (at an amount of folds of 25 μL) was taken and cold acetonitrile containing the internal standard (100 μL) was added. Sample was centrifuged for 10 minutes to precipitate the plasma protein. Finally, supernatant (10 μL) was injected into the LC-MS/MS system for analysis.
LC-MS/MS analysis method: All samples were analyzed by LC-MS/MS system of API4000 QTRAP mass spectrometer equipped with LC-20AD and CBM-20A controllers, DGU-20A solvent degasser and SIL-20A autosampler (Japan Shimadzu, Colombia, Md., USA). A Bona Aeger Venusil XBP C18 column (50×2.1 mm; filler 5 micron particle size) was used for HPLC separation. The column temperature was maintained at 40° C. The flow rate was 0.3 mL/min and the total run time was 6 minutes.
For the quantification of MS/MS, the API4000 QTRAP mass spectrometer was operated in an ESI positive mode with multiple reaction monitoring (MRM). All compounds and internal standards were set to be monitored during a residence time of 100 milliseconds. The other MS/MS parameters were set as follows: atomization gas (GS1) at 30 psi, 551b turbine pressure, 4500V ion spray voltage, 500° C. ion source temperature. For the selected ion transitions, each analyte was tested at the optimal sensitivity of the cluster potential (DP) and the collision energy (CE). Finally, the data was collected and processed using AB SCIEX Analysist 1.5.2 data collection and integration software.
Test subjects, Sprague-Dawley rats (body weight from about 220 g to about 250 g), were purchased from Slac Laboratory Animals (Shanghai, China). All compounds tested at 1 mg/mL concentration, either intravenous injected at a tail vein at 1 mL/kg dosage for one group of test subjects or administered orally at a dose of 10 mL/kg in another group of test subjects. Then aliquots of blood samples were collected by retro-orbital venous plexus puncture at time intervals after the injection/administration. The blood samples were kept in tubes containing EDTA, centrifuged and stored at −80° C. before analysis. Blank plasma was collected by the same method before rats were treated with compounds. Plasma samples for analysis were obtained by removing about 25 μL from the saved blood sample; adding cold acetonitrile (about 100 μL) as internal standard; centrifuged for 10 minutes to precipitate plasma proteins; and collect about 10 μL of the upper clear solution for analysis done by an LC-MS/MS system.
All samples were analyzed by an API 4000 QTRAP® LC/MS/MS System equipped with Shimadzu LC-20AD pump, Shimadzu CBM-20A controller, SIL-20A autosampler and DGU-20A degasser (Shimadzu, Columbia, Md., USA). A Venusil XBP C18 HPLC Column (2.1×50 mm, 5 μm) (Bonna-Agela Technologies) was used for HPLC separation at isocratic temperature of 40° C. Flow rate was kept at 0.3 mL/min and the total run time was kept at 6 minutes.
Quantification by MS/MS is done using the above-described API 4000 QTRAP mass spectrometer equipped with multiple reaction monitoring (MRM) and positive electrospray ionization (ESI+) modes. All compounds and internal standard were detected at […] of about 100 milliseconds. Other parameters for MS/MS are shown below: Ion Source Gas 1 (GS1) at 30 psi, turbine pressure at 55 pounds, ion spray voltage at 4500 V, and ion source temperature at 500° C. MRM measurements of the analytes were performed using declustering potential (DP) and […] values optimized for each analyte. Finally, all of the operations, the acquisition and analysis of data were controlled by Analyst (version 1.5.2, AB Sciex, USA).

[3] = Oxidative metabolism found in pharmacokinetic studies; settings: benzylic oxidation at the C-5 methylene group
Hh signaling pathway [4] = settings: cited from earlier work
[5] = IC50 value of Vismodegib over that of the tested compound in the same assay
[6] = primary assay, Table 5, read-out: SMO IC50
[7] = previous patent, read-out: IC50 of NIH3T3-GRE-Luc, reported in WO2014113191A1

SMILES: Cc1cnc(-c2cc(N3CCc4nc(N5CCC(O)C5)ncc4C3=O)ncc2Cl)c(C)c1 (stereo not shown) [C]
Ratio (Hh signaling pathway [1]; [5]): 0.16
IC50 (Hh signaling pathway [1]; [6]): 272 nM

SMILES: Cc1cnc(-c2cc(N3CCc4nc(N5CCC(O)CC5)ncc4C3=O)ncc2Cl)c(C)c1 [Compound A-97]
ratio to vismodegib (relative efficacy), WO2014113191A1 (Hh signaling pathway [4]; previous patent): about 0.5 fold
ratio to vismodegib (relative efficacy), WO2014113191A1 (Hh signaling pathway [4]; previous patent, listed as A97): 0.54 fold
IC50 (Hh signaling pathway [4]; [7]): 84 nM

SMILES: Cc1cnc(-c2cc(N3CCc4nc(N5CCC(O)C5)ncc4C3C)ncc2Cl)c(C)c1 (stereo not shown) [D]
Ratio (Hh signaling pathway [1]; [5]): 3.2
IC50 (Hh signaling pathway [1]; [6]): 4.2 nM

SMILES: Cc1cnc(-c2cc(N3CCc4nc(NCC5CC5)ncc4C3C)ncc2Cl)c(C)c1 (stereo not shown) [E]
Ratio (Hh signaling pathway [1]; [5]): 1.74
IC50 (Hh signaling pathway [1]; [6]): 7.7 nM

SMILES: Cc1cnc(-c2cc(N3CCc4nc(NC5CC5)ncc4C3C)ncc2Cl)c(C)c1 (stereo not shown) [F]
Ratio (Hh signaling pathway [1]; [5]): 4.5
IC50 (Hh signaling pathway [1]; [6]): 4.4 nM

SMILES: CS(=O)(=O)c1ccc(C(=O)Nc2ccc(Cl)c(-c3ccccn3)c2)c(Cl)c1 [vismodegib, reference compound]
IC50 (Hh signaling pathway [1]; vismodegib control in the same assay as the test compound of the line, read-out: Effect IC50 (nM)(GRE reporter assay: vismodegib)): 13.4 nM and 17.9 nM and 19.3 nM
IC50 (Hh signaling pathway [1]; vismodegib control in the same assay as the test compound of the line, read-out: SMO IC50 (nM) (vismodegib)): 26 nM
IC50 (Hh signaling pathway [4]; reference in the run of A-55 (8.8) and of A-97 (45), read-out: IC50 of reference vismodegib, reported in WO2014113191A1): 8.8 nM and 45 nM

More lines, main results first:

AUC0-24 h ([2]; I.V., 2 mg/kg): 1780 ng·h/mL
CL ([2]; I.V., 2 mg/kg): 18.6 mL/min/kg
t1/2 ([2]; I.V., 2 mg/kg): 1 h
AUC0-24 h ([2]; P.O., 10 mg/kg): 5540 ng·h/mL
Vd ([2]; male, Sprague-Dawley, plasma, intravenous injection, 2 mg/kg, read-out: Apparent volume of distribution Vd, ss): 1.7 L/kg
AUC(0-t) ([2]; male, Sprague-Dawley, plasma, intravenous injection, 2 mg/kg): 1780 ng·h/mL
clearance ([2]; male, Sprague-Dawley, plasma, intravenous injection, 2 mg/kg, read-out: Clearance CL): 18.6 mL/min/kg
half-life ([2]; male, Sprague-Dawley, plasma, intravenous injection, 2 mg/kg, read-out: Half-life t1/2 (converted)): 60 min
AUC(0-t) ([2]; male, Sprague-Dawley, plasma, oral, 10 mg/kg): 5540 ng·h/mL
Cmax ([2]; male, Sprague-Dawley, plasma, oral, 10 mg/kg, read-out: Maximum plasma concentration Cmax): 2180 ng/mL
Tmax ([2]; male, Sprague-Dawley, plasma, oral, 10 mg/kg, read-out: Peak time Tmax): 30 min
bioavailability ([2]; male, Sprague-Dawley, plasma, 10 mg/kg, P.O. 10 mg/kg vs I.V. 2 mg/kg, read-out: F %): 62%
bioavailability ([2]; male, Sprague-Dawley, plasma, 10 mg/kg, oral 10 mg/kg vs intravenous 2 mg/kg, read-out: Bioavailability F %): 62%
bioavailability ([2]; male, Sprague-Dawley, plasma, 10 mg/kg, oral, read-out: bioavailability): 62%
SMILES: Cc1cnc(-c2cc(N3CCc4nc(N5CCC(O)CC5)ncc4C3)ncc2Cl)c(C)c1 [Compound A-55, reference compound]
susceptibility to oxidative metabolism (in words) [3]: easy to metabolized via benzylic oxidation
IC50 (Hh signaling pathway [4]; [7]): 5.5 nM

Hh pathway inhibitory activity (in words) (Hh signaling pathway [1]): relatively poor
IC50 (Hh signaling pathway [1]; 48 h, 10 nM SAG as agonist, 48 hours, read-out: Effect IC50 (nM)(GRE reporter assay)): 17 nM
IC50 (Hh signaling pathway [1]; [6]): 17 nM
SMILES: Cc1cnc(-c2cc(N3CCc4nc(N5CCC(O)CC5)ncc4[C@@H]3C)ncc2Cl)c(C)c1 [Compound B2, (S)-1-(6-(5′-chloro-3,5-dimethyl-[2,4′-bipyridin]-2′-yl)-5-methyl-5,6,7,8-tetrahydropyrido[4,3-d]pyrimidin-2-yl)piperidin-4-ol]
Ratio (Hh signaling pathway [1]; IC50 of vismodegib over that of the tested compound in the same assay): 1.1
Ratio (Hh signaling pathway [1]; [5]): 1.1

IC50 (Hh signaling pathway [1]; [6]): 4 nM
SMILES: Cc1cnc(-c2cc(N3CCc4nc(NC5CC5)ncc4[C@@H]3C)ncc2Cl)c(C)c1 [Compound B3, (5 S)-6-[5-chloro-4-(3,5-dimethyl-2-pyridyl)-2-pyridyl]-N-cyclopropyl-5-methyl-7,8-dihydro-5H-pyrido[4,3-d]pyrimidin-2-amine]
Ratio (Hh signaling pathway [1]; [5]): 3.1

IC50 (Hh signaling pathway [1]; [6]): 2.2 nM
SMILES: Cc1cnc(-c2cc(N3CCc4nc(NC5CC5)ncc4[C@H]3C)ncc2Cl)c(C)c1 [Compound B4, (R)-6-(5′-Chloro-3,5-dimethyl-[2,4′-bipyridin]-2′-yl)-N-cyclopropyl-5-methyl-5,6,7,8-tetrahydropyrido[4,3-d]pyrimidin-2-amine]
Ratio (Hh signaling pathway [1]; [5]): 8.1

IC50 (Hh signaling pathway [1]; [6]): 75 nM
SMILES: CCC(=O)Nc1ncc2c(n1)CCN(c1cc(-c3ncc(C)cc3C)c(Cl)cn1)[C@@H]2C [Compound B5, (R)—N-(6-(5′-chloro-3,5-dimethyl-[2,4′-bipyridin]-2′-yl)-5-methyl-5,6,7,8-tetrahydropyrido[4,3-d]pyrimidin-2-yl)propionamide]
Ratio (Hh signaling pathway [1]; [5]): 0.35

IC50 (Hh signaling pathway [1]; [6]): 3.9 nM
SMILES: Cc1cnc(-c2cc(N3CCc4nc(NC(=O)C(C)(C)C)ncc4[C@H]3C)ncc2Cl)c(C)c1 [Compound B6, (R)—N-(6-(5′-chloro-3,5-dimethyl-[2,4′-bipyridin]-2′-yl)-5-methyl-5,6,7,8-tetrahydropyrido[4,3-d]pyrimidin-2-yl)pivalamide]
Ratio (Hh signaling pathway [1]; [5]): 6.7
